Assay results as given in US20160102317A1, “PLANTS HAVING INCREASED TOLERANCE TO HERBICIDES” (BASF SE, priority 2013, published 2016).

Columns and labels:
[1] = system: Wild-type Arabidopsis plants; test: Arabidopsis growth inhibition in 48-well plates, tolerance factor; type: in vivo, Arabidopsis thaliana; details: plant growth IC50 relative to wild-type plants; Wild-type line
Description: (§1) Depending on the species, the plants are kept at 10-25° C. or 20-35° C. The test period extends over 3 weeks. During this time, the plants are tended and their response to the individual treatments is evaluated. Herbicide injury evaluations are taken at 2 and 3 weeks after treatment. Plant injury is rated on a scale of 0 to 9, 0 being no injury and 9 being complete death. Tolerance to HPPD-inhibiting herbicides can also be assessed in Arabidopsis. In this case transgenic Arabidopsis thaliana plants are assayed for improved tolerance to HPPD-inhibiting herbicides in 48-well plates. Seeds are surface sterilized by stirring for 5 min in ethanol+water (70+30 by volume), rinsing one time with ethanol+water (70+30 by volume) and two times with a sterile, deionized water. The seeds are resuspended in 0.1% agar dissolved in water (w/v). Four to five seeds per well are plated on solid nutrient medium consisting of half-strength Murashige Skoog nutrient solution, pH 5.8 (Murashige and Skoog (1962) Physiologia Plantarum 15: 473-497). […] Seven to ten days after seeding growth inhibition is evaluated by comparison to wild-type plants. Tolerance factor is calculated by dividing the plant growth IC50 value of transgenic plants containing a HPPD and/or HST sequence by that of wild-type plants.

[2] = target: T1, Hordeum HPPD (SEQ ID NO:2), wild-type (Hordeum vulgare, UniProt O48604, A164G/R146V/R147D/R148G); test: HPPD activity assay (HGA by HPLC), wild-type enzyme characterization; type: biochemical
T1 construct: His (N); made in house; host or cells: E. coli BL21 (DE3)
Description: (§2) HPPD produces homogentisic acid and CO2 from 4-hydroxyphenylpyruvate (4-HPP) and 02. The activity assay for HPPD is based on the analysis of homogentisic acid by reversed phase HPLC. The assay mixture can contain 150 mM potassium phosphate buffer pH 7.0, 50 mM L-ascorbic acid, 100 μM Catalase (Sigma-Aldrich), 1 μM FeSO4 and 0.2 units of purified HPPD enzyme in a total volume of 505 μl. 1 unit is defined as the amount of enzyme that is required to produce 1 nmol of HGA per minute at 20° C.
(§3) After a preincubation of 30 min the reaction is started by adding 4-HPP to a final concentration of 0.05 mM. The reaction is allowed to proceed for 45 min at room temperature. The reaction is stopped by the addition of 50 μl of 4.5 M phosphoric acid. The sample is filtered using a […] pore size PVDF filtration device.
(§4) 5 μl of the cleared sample is analyzed on an UPLC HSS T3 column (particle size 1.8 μm, dimensions 2.1×50 mm; Waters) by isocratic elution using 90% 20 mM NaH2PO4 pH 2.2, 10% methanol (v/v).
(§5) HGA is detected electrochemically at 750 mV (mode: DC; polarity: positive) and quantified by integrating peak areas (Empower software; Waters).
(§6) Inhibitors are dissolved in DMSO (dimethylsulfoxide) to a concentration of 0.5 mM. From this stock solution serial five-fold dilutions are prepared in DMSO, which are used in the assay. The respective inhibitor solution accounts for 1% of the assay volume. […] Activities are normalized by setting the uninhibited enzyme activity to 100%. IC50 values are calculated using non-linear regression.
Using methods which are described in the above examples or well known in the art, purified, recombinant wild-type HPPD enzymes are characterized with respect to their kinetic properties and sensitivity towards HPPD inhibiting herbicides. Apparent michaelis constants (Km) and maximal reaction velocities (Vmax) are calculated by non-linear regression with the software GraphPad Prism 5 (GraphPad Software, La Jolla, USA) using a substrate inhibition model. […] Weighted means (by standard error) of Km and IC50 values are calculated from at least three independent experiments.
(§7) Field performance of the HPPD enzyme, which is used as a herbicide tolerance trait, may depend not only on its lack of sensitivity towards HPPD inhibiting herbicides but also on its activity. To assess the potential performance of a herbicide tolerance trait a tolerance index (TI) is calculated using the following formula: […]
(§8) Easy comparison and ranking of each trait is enabled by normalizing tolerance indexes on Arabidopsis wild-type HPPD.

[3] = system: Arabidopsis overexpression line HvHPPD (SEQ ID: 2); test: Arabidopsis growth inhibition in 48-well plates, tolerance factor; type: in vivo, Arabidopsis thaliana; details: plant growth IC50 of transgenic / wild-type plants
Description: (§9) Arabidopsis thaliana is transformed with HPPD or HST sequences by floral dip method as described by McElver and Singh (WO 2008/124495). Transgenic Arabidopsis plants are subjected to TaqMan analysis for analysis of the number of integration loci.
(§10) Depending on the species, the plants are kept at 10-25° C. or 20-35° C. The test period extends over 3 weeks. During this time, the plants are tended and their response to the individual treatments is evaluated. Herbicide injury evaluations are taken at 2 and 3 weeks after treatment. Plant injury is rated on a scale of 0 to 9, 0 being no injury and 9 being complete death. Tolerance to HPPD-inhibiting herbicides can also be assessed in Arabidopsis. In this case transgenic Arabidopsis thaliana plants are assayed for improved tolerance to HPPD-inhibiting herbicides in 48-well plates. Seeds are surface sterilized by stirring for 5 min in ethanol+water (70+30 by volume), rinsing one time with ethanol+water (70+30 by volume) and two times with a sterile, deionized water. The seeds are resuspended in 0.1% agar dissolved in water (w/v). Four to five seeds per well are plated on solid nutrient medium consisting of half-strength Murashige Skoog nutrient solution, pH 5.8 (Murashige and Skoog (1962) Physiologia Plantarum 15: 473-497). Compounds are dissolved in dimethylsulfoxid (DMSO) and added to the medium prior solidification (final DMSO concentration 0.1%). Multi well plates are incubated in a growth chamber at 22° C., 75% relative humidity and 110 μmol Phot*m-2*s-1 with 14:10 h light:dark photoperiod. Seven to ten days after seeding growth inhibition is evaluated by comparison to wild-type plants. Tolerance factor is calculated by dividing the plant growth IC50 value of transgenic plants containing a HPPD and/or HST sequence by that of wild-type plants.

[4] = system: Arabidopsis overexpression line AtHPPD (Seq ID: 53) M335H, P336G, E363Q; test: as above; type: in vivo, Arabidopsis thaliana; details: plant growth IC50 of transgenic / wild-type plants
Description: as §9, §10

[5] = system: Arabidopsis overexpression line AtHPPD (Seq ID: 53) F381I; test: as above; type: in vivo, Arabidopsis thaliana; details: plant growth IC50 of transgenic / wild-type plants
Description: as §9, §10

[6] = system: Arabidopsis overexpression line Picrophilus HPPD; test: as above; type: in vivo, Arabidopsis thaliana; details: plant growth IC50 of transgenic / wild-type plants
Description: as §9, §10

[7] = system: Arabidopsis overexpression line HvHPPD (SEQ ID: 2) L320H, P321A; test: as above; type: in vivo, Arabidopsis thaliana; details: plant growth IC50 of transgenic / wild-type plants
Description: as §9, §10

[8] = target: T2, Hordeum HPPD (SEQ ID: 2) L353M, P321R, L320N (Hordeum vulgare, UniProt O48604, L320N/L353M/P321R); test: HPPD activity assay, in vitro characterization of HPPD mutants; type: biochemical; details: Table 16, Hordeum wild-type = 1
T2 construct: His (N); made in house; host or cells: E. coli BL21 (DE3)
Description: as §2, §3, §4, §5, §6
Purified, mutant HPPD enzymes are obtained by the methods described above. Dose response and kinetic measurements are carried out using the described HPPD activity assay. Apparent michaelis constants (Km) and maximal reaction velocities (Vmax) are calculated by non-linear regression with the software GraphPad Prism 5 (Graph Pad Software, La Jolla, USA) using a substrate inhibition model. […] Weighted means (by standard error) of Km and IC50 values are calculated from at least three independent experiments.
as §7, with “of the optimized HPPD enzyme,” for “of the HPPD enzyme,”, “herbicide tolerance trait may depend” for “herbicide tolerance trait, may depend”
as §8

[9] = system: Arabidopsis overexpression line AtHPPD (Seq ID: 53); test: Arabidopsis growth inhibition in 48-well plates, tolerance factor; type: in vivo, Arabidopsis thaliana; details: plant growth IC50 of transgenic / wild-type plants
Description: Rows A-F are individual events. Non-transformed control plants are marked as wild-type (WT). The HPPD-inhibiting herbicide used refers to (NE)-8-chloro-N-(4-methoxy-1,2,5-oxadiazol-3-ylidene)-4,4-dimethyl-1,1-dioxo-2,3-dihydrothiochromene-7-carboxamide
as §9
as §1, with “plates.” for “plates. Seeds are surface sterilized by stirring for 5 min in ethanol+water (70+30 by volume), rinsing one time with ethanol+water (70+30 by volume) and two times with a sterile, deionized water. The seeds are resuspended in 0.1% agar dissolved in water (w/v). Four to five seeds per well are plated on solid nutrient medium consisting of half-strength Murashige Skoog nutrient solution, pH 5.8 (Murashige and Skoog (1962) Physiologia Plantarum 15: 473-497).”

[10] = Table 16, Hordeum HPPD variant Wild-type

T1 sequence (O48604 whole entry R146V/R147D/R148G/A164G): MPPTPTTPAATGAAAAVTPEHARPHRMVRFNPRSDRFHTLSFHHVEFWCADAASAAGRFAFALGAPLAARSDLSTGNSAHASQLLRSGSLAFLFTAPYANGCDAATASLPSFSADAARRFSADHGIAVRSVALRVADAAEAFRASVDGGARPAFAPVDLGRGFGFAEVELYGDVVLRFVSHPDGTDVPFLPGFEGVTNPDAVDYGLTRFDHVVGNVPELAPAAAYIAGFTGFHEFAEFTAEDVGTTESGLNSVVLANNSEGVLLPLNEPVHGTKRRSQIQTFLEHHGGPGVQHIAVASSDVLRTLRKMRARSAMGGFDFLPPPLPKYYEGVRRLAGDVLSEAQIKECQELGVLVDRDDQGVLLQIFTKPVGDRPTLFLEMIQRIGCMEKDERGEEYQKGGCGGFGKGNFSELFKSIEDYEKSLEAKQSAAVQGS
T2 sequence (O48604 whole entry R146V/R147D/R148G/A164G/L320N/P321R/L353M): as the sequence (O48604 whole entry R146V/R147D/R148G/A164G) above, with L320N, P321R, L353M counted along it

| SMILES | Tolerance factor towards Inhibitor 1 [1] | Ki [2] [nM] | TI Inhibitor 1 (normalized tolerance index) ([2]; Table 12, Hordeum HPPD, normalized to reference SEQ ID NO:53) | TI Inhibitor 1 (normalized tolerance index) [2, 10] | Tolerance factor towards Inhibitor 1 [3] | Tolerance factor towards Inhibitor 1 [4] | Tolerance factor towards Inhibitor 1 [5] | Tolerance factor towards Inhibitor 1 [6] | Tolerance factor towards Inhibitor 1 [7] | TI Inhibitor 1 (normalized tolerance index) [8] | Tolerance factor towards Inhibitor 1 [9] | Tolerance factor towards Inhibitor 2 [1] | TI Inhibitor 2 (normalized tolerance index) [2, 10] | Tolerance factor towards Inhibitor 2 [3] | Tolerance factor towards Inhibitor 2 [4] | Tolerance factor towards Inhibitor 2 [5] | Tolerance factor towards Inhibitor 2 [6] | Tolerance factor towards Inhibitor 2 [7] | TI Inhibitor 2 (normalized tolerance index) [8] | Tolerance factor towards Inhibitor 2 [9] |
| --- | --- | --- | --- | --- | --- | --- | --- | --- | --- | --- | --- | --- | --- | --- | --- | --- | --- | --- | --- | --- |
| COc1no[nH]/c1=N/C(=O)c1ccc2c(c1Cl)S(=O)(=O)CCC2(C)C [Inhibitor 1, (NE)-8-chloro-N-(4-methoxy-1,2,5-oxadiazol-3-ylidene)-4,4-dimethyl-1,1-dioxo-2,3-dihydrothiochromene-7-carboxamide] | 1 | 38 | 0.9 | 1 | 76 | 15.8 | 37.5 | 4.5 | 85 | 0.2 | 6.4 | – | – | – | – | – | – | – | – | – |
| Cc1c(C(=O)Nc2nnnn2C)ccc2c1C(=O)C(C)(C)CS2(=O)=O [Inhibitor 2, 3,3,5-trimethyl-N-(1-methyltetrazol-5-yl)-1,1,4-trioxo-2H-thiochromene-6-carboxamide] | – | – | – | – | – | – | – | – | – | – | – | 1 | 1 | 10.2 | 60.8 | 60.8 | 2.6 | 7.9 | 3.5 | 3 |
